Experimental data from patent US9527885B2, “Hepatitis C virus inhibitors” (BRISTOL-MYERS SQUIBB COMPANY, priority 2011, dated 2016).
Where two headings read alike, the source gives them in different places.

Legend:
[1] = tested on: HCV genotype 1b (Con1) replicon in HUH-7 cells; test: HCV replicon luciferase reporter assay, genotype 1b; type: cell-based; settings: 3 days incubation
Text: An HCV replicon whole cell system was established as described by Lohmann V, Korner F, Koch J, Herian U, Theilmann L, Bartenschlager R., Science 285(5424):110-3 (1999) and modified to introduce a luciferase reporter, as first described by Krieger et al (Krieger N, Lohmann V, and Bartenschlager R, J. Virol. 75(10):4614-4624 (2001)). CDNA encoding a humanized form of the Renilla luciferase gene and a linker sequence fused directly to the 3′-end of the luciferase gene were introduced into the replicon construct using an Asc1 restriction site located in core, directly upstream of the neomycin marker gene. The adaptive mutation at position 1179 (serine to isoleucine) was also introduced (Blight K J, Kolykhalov, A A, Rice, C M, Science 290(5498):1972-1974). A stable cell line constitutively expressing this HCV replicon construct was generated by first linearizing plasmid DNAs with ScaI. RNA transcripts were synthesized in vitro using the T7 MegaScript transcription kit (Ambion, Austin, Tex.) according to manufacturer's directions. In vitro transcripts of the cDNA were transfected into the human hepatoma cell line, HUH-7. […] Resulting cell lines were characterized for positive and negative strand RNA production and protein production over time. […]
(§1) HCV replicon luciferase assays were developed to monitor the inhibitory effects of compounds described in the disclosure on HCV genotypes 1a and 1b viral replication. HUH-7 cells, constitutively expressing the HCV replicon, were grown in Dulbecco's Modified Eagle Media (DMEM) (Gibco-BRL) containing 10% Fetal calf serum (FCS) (Sigma) and 1 mg/mL G418 (Gibco-BRL). Compounds were serially diluted 3 folds in DMSO for a twenty-point titration and subsequently transferred to sterile 384-well tissue-culture treated plates (Corning cat #3571). The plates were then seeded with 50 μL of cells at a density of 3.0×10^3 cells/well in DMEM containing 4% FCS (final DMSO concentration at 0.5%). After 3 days incubation at 37° C., cells were analyzed for Renilla Luciferase activity using the EnduRen as substrate (Promega cat #E6485). The EnduRen substrate was diluted in DMEM and then added to the plates to a final concentration of 7.5 μM. The plates were incubated for 2 hrs at 37° C. and then read immediately for 30 seconds with Viewlux Imager (PerkinElmer) using a luminescence program. To assess cytotoxicity of compounds, CC50 values were generated by multiplexing the EnduRen-containing plates with Cell Titer-Blue (Promega, cat # G8082). Cell-Titer Blue (3 μL) was added to each well and incubated for 8 hrs at 37° C. The fluorescence signal from each well was read, with an excitation wavelength at 525/10 nm and an emission wavelength of 598/10 nm, using the Viewlux Imager.
(§2) The EC50 values for compounds were calculated by using a four-parameter logistic equation: y=A+((B−A)/(1+((C/x)^D))), where A and B denotes minimal and maximal % inhibition, respectively, C is the EC50, D is the hill slope and x represents compound concentration.

[2] = tested on: HCV genotype 1a (H77 strain) replicon in HUH-7 cells; test: HCV replicon luciferase reporter assay, genotype 1a; type: cell-based; settings: 3 days incubation
Text: An HCV replicon whole cell system was established as described by Lohmann V, Korner F, Koch J, Herian U, Theilmann L, Bartenschlager R., Science 285(5424):110-3 (1999) and modified to introduce a luciferase reporter, as first described by Krieger et al (Krieger N, Lohmann V, and Bartenschlager R, J. Virol. 75(10):4614-4624 (2001)). CDNA encoding a humanized form of the Renilla luciferase gene and a linker sequence fused directly to the 3′-end of the luciferase gene were introduced into the replicon construct using an Asc1 restriction site located in core, directly upstream of the neomycin marker gene. The adaptive mutation at position 1179 (serine to isoleucine) was also introduced (Blight K J, Kolykhalov, A A, Rice, C M, Science 290(5498):1972-1974). A stable cell line constitutively expressing this HCV replicon construct was generated by first linearizing plasmid DNAs with ScaI. RNA transcripts were synthesized in vitro using the T7 MegaScript transcription kit (Ambion, Austin, Tex.) according to manufacturer's directions. In vitro transcripts of the cDNA were transfected into the human hepatoma cell line, HUH-7. […] Resulting cell lines were characterized for positive and negative strand RNA production and protein production over time.
A stable HCV replicon luciferase reporter cell line representing the genotype 1a H77 strain (Yanagi M, Purcell R H, Emerson S U, et al. Transcripts from a single full-length cDNA clone of hepatitis C virus are infectious when directly transfected into the liver of a chimpanzee. Proc Natl Acad Sci USA 1997; 94(16):8738-8743) was generated as described previously for the genotype 1b (Con1) replicon luciferase cell line. The replicon construct was modified by introducing mutations were introduced into the genes encoding the NS3 helicase domain (proline replaced by leucine at position 1496) and NS5A (serine to isoleucine at position 2204) to improve replication in cell culture.
as §1, §2

[3] = Hepatitis C virus, 72 h, HCV genotype 1b replicon luciferase reporter, range class, read-out: LE_1b (EC50, range)
[4] = Hepatitis C virus, Huh-7, 72 h, HCV genotype 1a replicon luciferase reporter, range class, read-out: LE_1a (EC50, range)

Question: Which results are given for “1,1,1-trifluoro-2-methylpropan-2-yl ((2R,6S,7R,9S,13aS,14aR,16aS,Z)-7-ethyl-14a-(((1-(fluoromethyl)cyclopropyl)sulfonyl)carbamoyl)-9-methyl-2-((4-methyl-3,4-dihydro-2H-[1,4]oxazino[2,3-f]isoquinolin-7-yl)oxy)-5,16-dioxo-1,2,3,5,6,7,8,9,10,11,13a,14,14a,15,16,16a-hexadecahydrocyclopropa[e]pyrrolo[1,2-a][1,4]diazacyclopentadecin-6-yl)carbamate [Compound 5319]”?
Answer: EC50 ([1]; HCV genotype 1b replicon luciferase, read-out: LE_1b (EC50)): 14.2 nM; EC50 ([2]; HCV genotype 1a replicon luciferase, read-out: LE_1a (EC50)): 33.6 nM

Question: COc1cnc(O[C@@H]2C[C@H]3C(=O)N[C@]4(C(=O)NS(=O)(=O)C5CC5)C[C@H]4/C=C\CC[C@@H](C)C[C@@H](C)[C@H](NC(=O)OC(C)(C)C(F)(F)F)C(=O)N3C2)c2ccccc12 [Compound 3, 1,1,1-trifluoro-2-methylpropan-2-yl ((2R,6S,7R,9R,13aS,14aR,16aS,Z)-14a-((cyclopropylsulfonyl)carbamoyl)-2-((4-methoxyisoquinolin-1-yl)oxy)-7,9-dimethyl-5,16-dioxo-1,2,3,5,6,7,8,9,10,11,13a,14,14a,15,16,16a-hexadecahydrocyclopropa[e]pyrrolo[1,2-a][1,4]diazacyclopentadecin-6-yl)carbamate] was tested. Which EC50 [1, 3] did it give?
Answer: < 5.46 nM

Question: What about the EC50 [2, 4] of the same molecule?
Answer: < 5.46 nM

Question: What does the source list for COCCOc1cc2c(Cl)cccc2c(O[C@@H]2C[C@H]3C(=O)N[C@]4(C(=O)NS(=O)(=O)C5(C)CC5)C[C@H]4/C=C\CC[C@@H](C)C[C@@H](C)[C@H](NC(=O)OC(C)(C)C(F)(F)F)C(=O)N3C2)n1 [Compound 1114, 1,1,1-trifluoro-2-methylpropan-2-yl ((2R,6S,7R,9R,13aS,14aR,16aS,Z)-2-((5-chloro-3-(2-methoxyethoxyl)isoquinolin-1-yl)oxy)-7,9-dimethyl-14a-(((1-methylcyclopropyl)sulfonyl)carbamoyl)-5,16-dioxo-1,2,3,5,6,7,8,9,10,11,13a,14,14a,15,16,16a-hexadecahydrocyclopropa[e]pyrrolo[1,2-a][1,4]diazacyclopentadecin-6-yl)carbamate]?
Answer: EC50 [1, 3]: < 5.46 nM; EC50 [2, 4]: < 5.46 nM

Question: For C[C@@H]1CCC[C@H](O)[C@@H]2C[C@@]2(C(=O)NS(=O)(=O)C2(C)CC2)NC(=O)[C@@H]2C[C@@H](Oc3ncc(OC4CC4)c4ccccc34)CN2C(=O)[C@@H](NC(=O)OC(C)(C)C(F)(F)F)[C@H](C)C1 [Compound 2002, 1,1,1-trifluoro-2-methylpropan-2-yl ((2R,6S,7R,9R,13S,13aR,14aR,16aS)-2-((4-cyclopropoxyisoquinolin-1-yl)oxy)-13-hydroxy-7,9-dimethyl-14a-(((1-methylcyclopropyl)sulfonyl)carbamoyl)-5,16-dioxooctadecahydrocyclopropa[e]pyrrolo[1,2-a][1,4]diazacyclopentadecin-6-yl)carbamate], which EC50 [1, 3] is on record?
Answer: 4.82 to 103 nM

Question: What about the EC50 [2, 4] of the same molecule?
Answer: 4.82 to 103 nM

Question: COc1ccc2c(O[C@@H]3C[C@H]4C(=O)N[C@]5(C(=O)NS(=O)(=O)C6(C)CC6)C[C@H]5/C=C\CC[C@H](C)C[C@@H](C)[C@H](NC(=O)OC(C)(C)C(F)(F)F)C(=O)N4C3)nc(N(C)C)cc2c1 [Compound 3116, 1,1,1-trifluoro-2-methylpropan-2-yl ((2R,6S,7R,9S,13aS,14aR,16aS,Z)-2-((3-(dimethylamino)-6-methoxyisoquinolin-1-yl)oxy)-7,9-dimethyl-14a-(((1-methylcyclopropyl)sulfonyl)carbamoyl)-5,16-dioxo-1,2,3,5,6,7,8,9,10,11,13a,14,14a,15,16,16a-hexadecahydrocyclopropa[e]pyrrolo[1,2-a][1,4]diazacyclopentadecin-6-yl)carbamate] was tested. Which EC50 [1, 3] did it give?
Answer: < 5.46 nM

Question: And the EC50 [2, 4]?
Answer: 4.82 to 103 nM

Question: COc1ccc2c(O[C@@H]3C[C@H]4C(=O)N[C@]5(C(=O)NS(=O)(=O)C6(C)CC6)C[C@H]5/C=C\CC[C@@H](C)C[C@@H](C)[C@H](NC(=O)OC(C)(C)C(F)(F)F)C(=O)N4C3)nc(N(C)C)cc2c1 [Compound 3117, 1,1,1-trifluoro-2-methylpropan-2-yl ((2R,6S,7R,9R,13aS,14aR,16aS,Z)-2-((3-(dimethylamino)-6-methoxyisoquinolin-1-yl)oxy)-7,9-dimethyl-14a-(((1-methylcyclopropyl)sulfonyl)carbamoyl)-5,16-dioxo-1,2,3,5,6,7,8,9,10,11,13a,14,14a,15,16,16a-hexadecahydrocyclopropa[e]pyrrolo[1,2-a][1,4]diazacyclopentadecin-6-yl)carbamate] was tested. Which EC50 [1, 3] did it give?
Answer: < 5.46 nM

Question: What about the EC50 [2, 4] of the same molecule?
Answer: < 5.46 nM

Question: Which EC50 [1, 3] does the source give for COc1ccc2c(O[C@@H]3C[C@H]4C(=O)N[C@]5(C(=O)NS(=O)(=O)C6(CF)CC6)C[C@H]5/C=C\CC[C@@H](C)C[C@@H](C)[C@H](NC(=O)OC(C)(C)C(C)(F)F)C(=O)N4C3)nc(N(C)C)cc2c1 [Compound 3125, 3,3-difluoro-2-methylbutan-2-yl ((2R,6S,7R,9R,13aS,14aR,16aS,Z)-2-((3-(dimethylamino)-6-methoxyisoquinolin-1-yl)oxy)-14a-(((1-(fluoromethyl)cyclopropyl)sulfonyl)carbamoyl)-7,9-dimethyl-5,16-dioxo-1,2,3,5,6,7,8,9,10,11,13a,14,14a,15,16,16a-hexadecahydrocyclopropa[e]pyrrolo[1,2-a][1,4]diazacyclopentadecin-6-yl)carbamate] here?
Answer: < 5.46 nM

Question: And the EC50 [2, 4]?
Answer: 4.82 to 103 nM

Question: Which results are given for COc1ccc2c(O[C@@H]3C[C@H]4C(=O)N[C@]5(C(=O)NS(=O)(=O)C6(CF)CC6)C[C@H]5/C=C\CC[C@H](C)C[C@@H](C)[C@H](NC(=O)OC(C)(C)C(F)(F)F)C(=O)N4C3)nc(N(C)C)cc2c1 [Compound 3126, 1,1,1-trifluoro-2-methylpropan-2-yl ((2R,6S,7R,9S,13aS,14aR,16aS,Z)-2-((3-(dimethylamino)-6-methoxyisoquinolin-1-yl)oxy)-14a-(((1-(fluoromethyl)cyclopropyl)sulfonyl)carbamoyl)-7,9-dimethyl-5,16-dioxo-1,2,3,5,6,7,8,9,10,11,13a,14,14a,15,16,16a-hexadecahydrocyclopropa[e]pyrrolo[1,2-a][1,4]diazacyclopentadecin-6-yl)carbamate]?
Answer: EC50 [1, 3]: 4.82 to 103 nM; EC50 [2, 4]: 4.82 to 103 nM
